Where only a bound is given, the exact number is not on record here.

For test [1], the system named is Puccinia recondita f. Sp. Tritici. Put plainly: Fungicidal activity against Puccinia recondita f. sp. tritici / wheat / leaf disc preventative (brown rust). It counts as in vivo. The note with it: foliar, 200 ppm in the applied formulation, wheat leaf segments, preventative, compared to untreated control leaf disks, read-out: disease control. The method in brief: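 Preventative leaf-segment test, wheat cv. Kanzler on water agar. Spray compound at 200 ppm, inoculate with spores 1 day later; 19° C., 75% rh, 12/12 h light. Read-out: % disease control vs untreated, 7 to 9 days after application.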

The test system is the same in test [2]. Put plainly: Fungicidal activity against Puccinia recondita f. sp. tritici / wheat / leaf disc curative (brown rust). It counts as in vivo. The note with it: foliar, 24 h, 200 ppm in the applied formulation, wheat leaf segments, curative (applied 1 day after inoculation), compared to untreated control leaf disks, read-out: disease control. Here is the method: Leaf disks or leaf segments of various plant species are cut from plants grown in a greenhouse. The cut leaf disks or segments are placed in multiwell plates (24-well format) onto water agar. The leaf disks are sprayed with a test solution before (preventative) or after (curative) inoculation. Compounds to be tested are prepared as DMSO solutions (max. 10 mg/ml) which are diluted to the appropriate concentration with 0.025% Tween20 just before spraying. The inoculated leaf disks or segments are incubated under defined conditions (temperature, relative humidity, light, etc.) according to the respective test system. A single evaluation of disease level is carried out 3 to 14 days after inoculation, depending on the pathosystem. Percent disease control relative to the untreated check leaf disks or segments is then calculated.
Fungicidal Activity Against Puccinia recondita f. Sp. Tritici/Wheat/Leaf Disc Curative (Brown Rust)
Wheat leaf segments cv. Kanzler are placed on agar in multiwell plates (24-well format). The leaf segments are then inoculated with a spore suspension of the fungus. Plates were stored in darkness at 19° C. and 75% relative humidity. The formulated test compound diluted in water was applied 1 day after inoculation. The leaf segments were incubated at 19° C. and 75% relative humidity under a light regime of 12 hours light/12 hours darkness in a climate cabinet and the activity of a compound was assessed as percent disease control compared to untreated when an appropriate level of disease damage appears in untreated check leaf segments (6 to 8 days after application).
The following compounds at 200 ppm in the applied formulation give at least 80% disease control in this test when compared to untreated control leaf disks under the same conditions, which show extensive disease development.

The subject of test [3] is Glomerella lagenarium (Colletotrichum lagenarium). Put plainly: Fungicidal activity against Glomerella lagenarium (Colletotrichum lagenarium) liquid culture / cucumber / preventative (anthracnose). It counts as cell-based. The note with it: Colletotrichum orbiculare; 20 ppm in the applied formulation; liquid culture (PDB), growth inhibition measured photometrically after 3 to 4 days; compared to untreated control; read-out: disease control. In short, it runs like this: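 Photometric read-out of fungal growth after 2–7 days, expressed as percent antifungal activity versus untreated check. Cryo-stored conidia in PDB; compound at 20 ppm; dark, 24 °C, 96% RH.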

Turning to `COCCN(Cc1ccc(-c2noc(C(F)(F)F)n2)cc1)C(=O)C1CCCN1C(C)=O` (centres unmarked) [Compound 1.357, 1-acetyl-N-(2-methoxyethyl)-N-[[4-[5-(trifluoromethyl)-1,2,4-oxadiazol-3-yl]phenyl]methyl]-pyrrolidine-2-carboxamide], the pest or weed control at 200 ppm in test [1] and in test [2] was ≥ 80% throughout.

With `CCCC(C)(C)C(=O)N(Cc1ccc(-c2noc(C(F)(F)F)n2)cc1)CC1CC1` [Compound 1.204, N-(cyclopropylmethyl)-2,2-dimethyl-N-[[4-[5-(trifluoromethyl)-1,2,4-oxadiazol-3-yl]phenyl]methyl]-pentanamide], the pest or weed control at 200 ppm in test [2] was ≥ 80%.

With `O=C(C1CCCC1)N(Cc1ccc(-c2noc(C(F)(F)F)n2)cc1)Cc1ccco1` [Compound 1.455, N-(2-furylmethyl)-N-[[4-[5-(trifluoromethyl)-1,2,4-oxadiazol-3-yl]phenyl]methyl]-cyclopentane-carboxamide], the inhibition of growth at 20 ppm in test [3] was ≥ 80%. The pest or weed control at 200 ppm in test [2] was ≥ 80%.

On to `CON(Cc1ccc(-c2noc(C(F)(F)F)n2)cc1)C(=O)c1cccc2ccccc12` [Compound 1.37], for which, in test [3], the inhibition of growth at 20 ppm was ≥ 80%. Moreover, the pest or weed control at 200 ppm in test [2] was ≥ 80%.

Turning to `COCCN(Cc1ccc(-c2noc(C(F)(F)F)n2)cc1)C(=O)C1(F)CC1` [Compound 1.349, 1-fluoro-N-(2-methoxyethyl)-N-[[4-[5-(trifluoromethyl)-1,2,4-oxadiazol-3-yl]phenyl]methyl]-cyctopropane-carboxamide], in test [3], the inhibition of growth at 20 ppm was ≥ 80%. For the same compound, the pest or weed control at 200 ppm in test [2] was ≥ 80%.

Consider `CCN(Cc1ccc(-c2noc(C(F)(F)F)n2)cc1)C(=O)N(CC)CC1CC1` [Compound 3.100, 1-(cyclopropylmethyl)-1,3-diethyl-3-[[4-[5-(trifluoromethyl)-1,2,4-oxadiazol-3-yl]phenyl]methyl]urea], for which the inhibition of growth at 20 ppm in test [3] was ≥ 80%. Also, the pest or weed control at 200 ppm in test [2] is ≥ 80%.

In the case of `CCC(C)N(Cc1ccc(-c2noc(C(F)(F)F)n2)cc1)C(=O)C1=CCCC1` (centres unmarked) [Compound 1.377, N-sec-butyl-N-[[4-[5-(trifluoromethyl)-1,2,4-oxadiazol-3-yl]phenyl]methyl]-cyclopentene-1-carboxamide], the inhibition of growth at 20 ppm in test [3] was ≥ 80%. In test [2], the pest or weed control at 200 ppm was ≥ 80%.

In the case of `CC(=O)N1CCCC1C(=O)N(Cc1ccc(-c2noc(C(F)(F)F)n2)cc1)CC1CCCO1` (centres unmarked) [Compound 1.444, 1-acetyl-N-(tetrahydrofuran-2-ylmethyl)-N-[[4-[5-(trifluoromethyl)-1,2,4-oxadiazol-3-yl]phenyl]methyl]-pyrrolidine-2-carboxamide], the pest or weed control at 200 ppm in test [2] was ≥ 80%.

Regarding `CON(Cc1ccc(-c2noc(C(F)(F)F)n2)cc1)C(=O)c1cccc(C(F)(F)F)c1` [Compound 1.13, N-methoxy-3-(trifluoromethyl)-N-[[4-[5-(trifluoromethyl)-1,2,4-oxadiazol-3-yl]phenyl]methyl]-benzamide], the inhibition of growth at 20 ppm in test [3] was ≥ 80%. Moreover, the pest or weed control at 200 ppm in test [2] is ≥ 80%.

In the case of `C#CCN(Cc1ccc(-c2noc(C(F)(F)F)n2)cc1)C(=O)CCc1ccc(Cl)cc1` [Compound 1.160, 3-(4-chlorophenyl)-N-prop-2-ynyl-N-[[4-[5-(trifluoromethyl)-1,2,4-oxadiazol-3-yl]phenyl]methyl]-propanamide], in test [2], the pest or weed control at 200 ppm is ≥ 80%.

In the case of `CON(Cc1ccc(-c2noc(C(F)(F)F)n2)cc1)C(=O)OCCCl` [Compound 2.17, 2-chloroethyl N-methoxy-N-[[4-[5-(trifluoromethyl)-1,2,4-oxadiazol-3-yl]phenyl]methyl]-carbamate], in test [3], the inhibition of growth at 20 ppm is ≥ 80%. Besides, in test [2], the pest or weed control at 200 ppm was ≥ 80%.

Take `C#CCC(NS(=O)(=O)CC)C(=O)N(Cc1ccc(-c2noc(C(F)(F)F)n2)cc1)C1CC1` (centres unmarked) [Compound 1.137, N-cyclopropyl-2-(ethylsulfonylamino)-N-[[4-[5-(trifluoromethyl)-1,2,4-oxadiazol-3-yl]phenyl]methyl]pent-4-ynamide]: in test [2], the pest or weed control at 200 ppm was ≥ 80%.

As to `C#CCN(Cc1ccc(-c2noc(C(F)(F)F)n2)cc1)C(=O)C(C)(C)CCC` [Compound 1.153, 2,2-dimethyl-N-prop-2-ynyl-N-[[4-[5-(trifluoromethyl)-1,2,4-oxadiazol-3-yl]phenyl]methyl]-pentanamide], the inhibition of growth at 20 ppm in test [3] is ≥ 80%. In addition, the pest or weed control at 200 ppm in test [2] is ≥ 80%.

For `O=C(CCCCC(F)(F)F)N(Cc1ccc(-c2noc(C(F)(F)F)n2)cc1)C1CC1` [Compound 1.131, N-cyclopropyl-6,6,6-trifluoro-N-[[4-[5-(trifluoromethyl)-1,2,4-oxadiazol-3-yl]phenyl]methyl]-hexanamide], the inhibition of growth at 20 ppm in test [3] was ≥ 80%. Besides, in test [2], the pest or weed control at 200 ppm is ≥ 80%.

`C=CCOC(=O)N(Cc1ccc(-c2noc(C(F)(F)F)n2)cc1)OC` [Compound 2.11, allyl N-methoxy-N-[[4-[5-(trifluoromethyl)-1,2,4-oxadiazol-3-yl]phenyl]methyl]-carbamate]: the inhibition of growth at 20 ppm in test [3] was ≥ 80%. Besides, the pest or weed control at 200 ppm in test [2] is ≥ 80%.

As to `C#CCOC(=O)N(Cc1ccc(-c2noc(C(F)(F)F)n2)cc1)OC` [Compound 2.20, prop-2-ynyl N-methoxy-N-[[4-[5-(trifluoromethyl)-1,2,4-oxadiazol-3-yl]phenyl]methyl]-carbamate], in test [3], the inhibition of growth at 20 ppm is ≥ 80%. Further, the pest or weed control at 200 ppm in test [2] is ≥ 80%.

Take `O=C(C1CC1F)N(Cc1ccc(-c2noc(C(F)(F)F)n2)cc1)CC1CCCO1` (centres unmarked) [Compound 1.445, 2-fluoro-N-(tetrahydrofuran-2-ylmethyl)-N-[[4-[5-(trifluoromethyl)-1,2,4-oxadiazol-3-yl]phenyl]methyl]-cyclopropane-carboxamide]: the inhibition of growth at 20 ppm in test [3] is ≥ 80%. Besides, the pest or weed control at 200 ppm in test [2] was ≥ 80%.

Consider `CON(Cc1ccc(-c2noc(C(F)(F)F)n2)cc1)C(=O)OCCF` [Compound 2.15, 2-fluoroethyl N-methoxy-N-[[4-[5-(trifluoromethyl)-1,2,4-oxadiazol-3-yl]phenyl]methyl]-carbamate], for which the inhibition of growth at 20 ppm in test [3] is ≥ 80%. Moreover, the pest or weed control at 200 ppm in test [2] is ≥ 80%.

`CCCON(Cc1ccc(-c2noc(C(F)(F)F)n2)cc1)C(=O)C1OCCO1` [Compound 1.317, N-propoxy-N-[[4-[5-(trifluoromethyl)-1,2,4-oxadiazol-3-yl]phenyl]methyl]-1,3-dioxolane-2-carboxamide]: in test [3], the inhibition of growth at 20 ppm is ≥ 80%. Moreover, the pest or weed control at 200 ppm in test [2] was ≥ 80%.

In the case of `CC(=O)NCC(=O)N(Cc1ccc(-c2noc(C(F)(F)F)n2)cc1)OCC=C(Cl)Cl` [Compound 1.537, 2-acetamido-N-(3,3-dichloroallyloxy)-N-[[4-[5-(trifluoromethyl)-1,2,4-oxadiazol-3-yl]phenyl]methyl]-acetamide], the pest or weed control at 200 ppm in test [1] is ≥ 80%. Also, the inhibition of growth at 20 ppm in test [3] is ≥ 80%.

`CC1(C(=O)N(Cc2ccc(-c3noc(C(F)(F)F)n3)cc2)C2CC2)CC1(Cl)Cl` (centres unmarked) [Compound 1.107, 2,2-dichloro-N-cyclopropyl-1-methyl-N-[[4-[5-(trifluoromethyl)-1,2,4-oxadiazol-3-yl]phenyl]methyl]-cyclopropane-carboxamide]: the pest or weed control at 200 ppm in test [1] is ≥ 80%. In test [3], the inhibition of growth at 20 ppm is ≥ 80%.

Values taken from patent US11180462B2, “Microbiocidal oxadiazole derivatives” (SYNGENTA PARTICIPATIONS AG, priority 2015, dated 2021).
